In patent US20250270209A1 (INTERLINE THERAPEUTICS, INC., priority 2022, published 2025):

Key:
[1] = molecular target: LRRK2 wild type enzyme (Homo sapiens, UniProt Q5S007); assay: Biochemical Assay: LRRK2 TR-FRET (LanthaScreen) kinase assay with LRRKtide substrate; settings: LRRK2 Inhibition, Table 8
How it was run: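 Human wild-type LRRK2 (3 nM) preincubated 15 min with compound (11-point, 3-fold, top 10 μM), then reacted 120 min at 23 °C with 400 nM LRRKtide and 25 μM ATP, pH 8.0. Stopped with EDTA; Tb-anti-pLRRKtide TR-FRET read after 30 min.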

[2] = molecular target: T1, wild type LRRK2 overexpressed in recombinant HEK-293T cells (Homo sapiens, UniProt Q5S007); assay: pS935 LRRK2 Cell Assay (HTRF, phospho-LRRK2 Ser935); format: cell-based; settings: LRRK2 Inhibition, Table 8, 2 hours compound incubation
T1 construct: host or cells: HEK293T (transient transfection with pCMV-LRRK2 WT plasmid)
How it was run: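 HEK-293T cells transiently transfected with wild-type LRRK2 for 24 h, plated overnight, then treated 2 h at 37° C with compound (top 10 μM, 3-fold, 9 doses, duplicates, 0.2% DMSO). Lysates probed overnight at 23° C by sandwich HTRF for pSer935; 665/615 nm ratio read.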

Chain of LRRK2 wild type enzyme (Q5S007 whole entry): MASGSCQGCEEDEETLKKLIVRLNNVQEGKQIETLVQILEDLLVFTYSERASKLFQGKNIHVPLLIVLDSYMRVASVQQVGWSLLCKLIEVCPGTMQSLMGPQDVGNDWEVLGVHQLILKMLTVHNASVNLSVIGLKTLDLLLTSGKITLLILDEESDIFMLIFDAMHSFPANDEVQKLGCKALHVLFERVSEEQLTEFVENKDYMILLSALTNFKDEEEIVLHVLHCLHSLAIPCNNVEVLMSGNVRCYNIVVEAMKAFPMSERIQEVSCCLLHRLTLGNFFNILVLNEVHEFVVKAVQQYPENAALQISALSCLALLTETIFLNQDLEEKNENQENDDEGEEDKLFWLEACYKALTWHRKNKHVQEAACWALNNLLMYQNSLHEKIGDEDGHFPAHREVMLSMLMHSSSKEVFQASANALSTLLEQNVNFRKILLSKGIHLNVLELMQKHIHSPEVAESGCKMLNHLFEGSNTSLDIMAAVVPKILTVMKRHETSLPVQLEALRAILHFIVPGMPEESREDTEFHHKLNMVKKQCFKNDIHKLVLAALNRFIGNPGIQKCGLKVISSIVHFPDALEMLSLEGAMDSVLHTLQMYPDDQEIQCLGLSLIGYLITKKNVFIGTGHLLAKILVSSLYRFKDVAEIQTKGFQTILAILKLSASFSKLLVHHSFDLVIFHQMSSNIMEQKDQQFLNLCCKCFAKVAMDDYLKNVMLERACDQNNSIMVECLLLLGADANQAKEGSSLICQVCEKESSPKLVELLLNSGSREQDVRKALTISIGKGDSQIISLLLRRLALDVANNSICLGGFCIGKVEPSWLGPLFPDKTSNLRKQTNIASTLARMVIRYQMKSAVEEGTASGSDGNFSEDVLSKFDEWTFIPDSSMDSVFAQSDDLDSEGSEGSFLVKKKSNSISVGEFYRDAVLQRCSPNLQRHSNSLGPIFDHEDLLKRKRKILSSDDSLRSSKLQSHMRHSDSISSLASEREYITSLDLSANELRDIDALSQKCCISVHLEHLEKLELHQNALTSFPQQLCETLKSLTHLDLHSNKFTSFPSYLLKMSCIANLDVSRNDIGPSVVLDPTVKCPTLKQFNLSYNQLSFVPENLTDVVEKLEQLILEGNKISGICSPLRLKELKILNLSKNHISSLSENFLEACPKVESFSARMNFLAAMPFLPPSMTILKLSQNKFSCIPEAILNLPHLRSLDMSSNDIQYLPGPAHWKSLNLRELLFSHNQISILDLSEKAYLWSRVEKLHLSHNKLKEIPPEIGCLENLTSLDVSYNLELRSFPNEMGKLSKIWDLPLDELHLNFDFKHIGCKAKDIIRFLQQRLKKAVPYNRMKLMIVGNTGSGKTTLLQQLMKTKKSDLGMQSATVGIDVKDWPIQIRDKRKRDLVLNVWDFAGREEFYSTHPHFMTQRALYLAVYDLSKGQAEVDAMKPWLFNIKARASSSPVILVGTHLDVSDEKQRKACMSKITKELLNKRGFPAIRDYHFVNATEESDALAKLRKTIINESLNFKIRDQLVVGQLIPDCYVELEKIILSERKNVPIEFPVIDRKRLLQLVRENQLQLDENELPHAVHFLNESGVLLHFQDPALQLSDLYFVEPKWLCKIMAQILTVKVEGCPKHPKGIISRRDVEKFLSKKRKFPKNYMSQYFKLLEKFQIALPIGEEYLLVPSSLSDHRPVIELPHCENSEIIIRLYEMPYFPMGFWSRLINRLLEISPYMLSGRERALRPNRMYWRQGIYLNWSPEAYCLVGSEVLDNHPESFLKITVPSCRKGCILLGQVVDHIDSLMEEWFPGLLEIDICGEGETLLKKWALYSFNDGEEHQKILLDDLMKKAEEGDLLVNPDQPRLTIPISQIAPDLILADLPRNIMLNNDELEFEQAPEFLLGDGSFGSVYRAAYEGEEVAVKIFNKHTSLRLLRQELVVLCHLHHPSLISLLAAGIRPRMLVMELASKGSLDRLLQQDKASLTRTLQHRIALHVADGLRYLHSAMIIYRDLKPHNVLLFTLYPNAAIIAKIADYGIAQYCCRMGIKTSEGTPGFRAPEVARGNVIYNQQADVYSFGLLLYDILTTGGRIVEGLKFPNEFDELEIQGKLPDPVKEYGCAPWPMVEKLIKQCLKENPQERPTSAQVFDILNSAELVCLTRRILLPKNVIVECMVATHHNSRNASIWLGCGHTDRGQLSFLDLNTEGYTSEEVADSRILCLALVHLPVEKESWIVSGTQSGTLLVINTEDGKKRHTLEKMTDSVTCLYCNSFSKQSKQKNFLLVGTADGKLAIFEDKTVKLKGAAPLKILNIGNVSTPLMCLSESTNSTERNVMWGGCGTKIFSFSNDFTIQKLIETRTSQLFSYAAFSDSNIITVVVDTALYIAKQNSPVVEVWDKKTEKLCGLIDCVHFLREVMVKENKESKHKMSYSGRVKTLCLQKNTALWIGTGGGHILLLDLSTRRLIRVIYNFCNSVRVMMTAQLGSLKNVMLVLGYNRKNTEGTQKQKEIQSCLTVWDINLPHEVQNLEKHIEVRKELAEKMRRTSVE
T1 sequence (Q5S007 whole entry): as above

Row | Compound | IC50 [1] [nM] | IC50 [2] [nM]
1 | CNC(=O)Cc1nc2cnc3ccc(C#N)cc3c2n1[C@@H]1CCO[C@H](C)C1 [Compound 82, 2-{8-cyano-1-[(2R,4R)-2-methyloxan-4-yl]-1H-imidazo[4,5-c]quinolin-2-yl}-N-methylacetamide] | 0.83 | 81.8
2 | C[C@@H]1C[C@H](n2c(CC(=O)NCc3cccnc3)nc3cnc4ccc(C#N)cc4c32)CCO1 [Compound 83, 2-{8-cyano-1-[(2R,4R)-2-methyloxan-4-yl]-1H-imidazo[4,5-c]quinolin-2-yl}-N-[(pyridin-3-yl)methyl]acetamide] | 0.33 | 25.1
3 | C[C@@H]1C[C@H](n2c(CC(=O)NC3CCC3)nc3cnc4ccc(C#N)cc4c32)CCO1 [Compound 84, 2-{8-cyano-1-[(2R,4R)-2-methyloxan-4-yl]-1H-imidazo[4,5-c]quinolin-2-yl}-N-cyclobutylacetamide] | 0.436 | 26.2
4 | C[C@@H]1C[C@H](n2c(CC(=O)N3CCCC3)nc3cnc4ccc(C#N)cc4c32)CCO1 [Compound 85, 1-[(2R,4R)-2-methyloxan-4-yl]-2-[2-oxo-2-(pyrrolidin-1-yl)ethyl]-1H-imidazo[4,5-c]quinoline-8-carbonitrile] | 5.11 | 416
5 | C[C@@H]1C[C@H](n2c(CC(=O)NCc3ccccn3)nc3cnc4ccc(C#N)cc4c32)CCO1 [Compound 86, 2-{8-cyano-1-[(2R,4R)-2-methyloxan-4-yl]-1H-imidazo[4,5-c]quinolin-2-yl}-N-[(pyridin-2-yl)methyl]acetamide] | 0.422 | 7.12
6 | C[C@@H]1C[C@H](n2c(CC(=O)NCc3cnn(C)c3)nc3cnc4ccc(C#N)cc4c32)CCO1 [Compound 87, 2-{8-cyano-1-[(2R,4R)-2-methyloxan-4-yl]-1H-imidazo[4,5-c]quinolin-2-yl}-N-[(1-methyl-1H-pyrazol-4-yl)methyl]acetamide] | 0.473 | 27.4
7 | C[C@@H]1C[C@H](n2c(CC(=O)Nc3cnn(C)c3)nc3cnc4ccc(C#N)cc4c32)CCO1 [Compound 88, 2-{8-cyano-1-[(2R,4R)-2-methyloxan-4-yl]-1H-imidazo[4,5-c]quinolin-2-yl}-N-(1-methyl-1H-pyrazol-4-yl)acetamide] | 0.457 | 24.4
8 | C[C@@H]1C[C@H](n2c(CC(=O)NCC3CCC3)nc3cnc4ccc(C#N)cc4c32)CCO1 [Compound 89, 2-{8-cyano-1-[(2R,4R)-2-methyloxan-4-yl]-1H-imidazo[4,5-c]quinolin-2-yl}-N-(cyclobutylmethyl)acetamide] | 0.589 | 34
9 | C[C@@H]1C[C@H](n2c(C3CC(=O)N(c4ccn(C)n4)C3)nc3cnc4ccc(C#N)cc4c32)CCO1 (stereo partly drawn) [Compound 100, 2-[1-(1-methyl-1H-pyrazol-3-yl)-5-oxopyrrolidin-3-yl]-1-[(2R,4R)-2-methyloxan-4-yl]-1H-imidazo[4,5-c]quinoline-8-carbonitrile] | 2.14 | 143
10 | C[C@@H]1C[C@H](n2c(C3CC(=O)N(c4ccnn4C)C3)nc3cnc4ccc(C#N)cc4c32)CCO1 (stereo partly drawn) [Compound 103, 2-[1-(1-methyl-1H-pyrazol-5-yl)-5-oxopyrrolidin-3-yl]-1-[(2R,4R)-2-methyloxan-4-yl]-1H-imidazo[4,5-c]quinoline-8-carbonitrile] | 1.98 | 400
11 | C[C@@H]1C[C@H](n2c(CNc3ncccn3)nc3cnc4ccc(C#N)cc4c32)CCO1 [Compound 105, 1-[(2R,4R)-2-methyloxan-4-yl]-2-{[(pyrimidin-2-yl)amino]methyl}-1H-imidazo[4,5-c]quinoline-8-carbonitrile] | 3.5 | 240
12 | C[C@@H]1C[C@H](n2c(CC(=O)NCC3CC3)nc3cnc4ccc(Cl)cc4c32)CCO1 [Compound 107, 2-{8-chloro-1-[(2R,4R)-2-methyloxan-4-yl]-1H-imidazo[4,5-c]quinolin-2-yl}-N-(cyclopropylmethyl)acetamide] | 0.354 | 10.9
13 | C[C@@H]1C[C@H](n2c(C3CC(=O)N(c4cnn(C)c4)C3)nc3cnc4ccc(Cl)cc4c32)CCO1 (stereo partly drawn) [Compound 108, 4-{8-chloro-1-[(2R,4R)-2-methyloxan-4-yl]-1H-imidazo[4,5-c]quinolin-2-yl}-1-(1-methyl-1H-pyrazol-4-yl)pyrrolidin-2-one] | 0.981 | 42.8
14 | N#Cc1ccc2ncc3nc(CC(=O)NCC4CC4)n(C4CCCC4)c3c2c1 [Compound 109, 2-{8-cyano-1-cyclopentyl-1H-imidazo[4,5-c]quinolin-2-yl}-N— (cyclopropylmethyl)acetamide] | 1.82 | 172
15 | CC(=O)N1CCC(c2nc3cnc4ccc(C#N)cc4c3n2[C@@H]2CCO[C@H](C)C2)CC1 [Compound 116, 2-(1-acetylpiperidin-4-yl)-1-[(2R,4R)-2-methyloxan-4-yl]-1H-imidazo[4,5-c]quinoline-8-carbonitrile] | 1.26 | 343
16 | C[C@@H]1C[C@H](n2c(C3CCN(C(=O)c4cccnn4)CC3)nc3cnc4ccc(C#N)cc4c32)CCO1 [Compound 117, 1-[(2R,4R)-2-methyloxan-4-yl]-2-[1-(pyridazine-3-carbonyl)piperidin-4-yl]-1H-imidazo[4,5-c]quinoline-8-carbonitrile] | 1.24 | 503
17 | C[C@@H]1C[C@H](n2c(C3CCN(C(=O)c4cnn(C)c4)CC3)nc3cnc4ccc(C#N)cc4c32)CCO1 [Compound 118, 2-[1-(1-methyl-1H-pyrazole-4-carbonyl)piperidin-4-yl]-1-[(2R,4R)-2-methyloxan-4-yl]-1H-imidazo[4,5-c]quinoline-8-carbonitrile] | 0.855 | 330
18 | C[C@@H]1C[C@H](n2c(C3CCN(S(=O)(=O)C4CC4)CC3)nc3cnc4ccc(C#N)cc4c32)CCO1 [Compound 120, 2-[1-(cyclopropanesulfonyl)piperidin-4-yl]-1-[(2R,4R)-2-methyloxan-4-yl]-1H-imidazo[4,5-c]quinoline-8-carbonitrile] | 1.7 | 268
19 | C[C@@H]1C[C@H](n2c(C3CCN(S(=O)(=O)c4cnn(C)c4)CC3)nc3cnc4ccc(C#N)cc4c32)CCO1 [Compound 121, 2-{1-[(1-methyl-1H-pyrazol-4-yl)sulfonyl]piperidin-4-yl}-1-[(2R,4R)-2-methyloxan-4-yl]-1H-imidazo[4,5-c]quinoline-8-carbonitrile] | 1.81 | 493
20 | C[C@@H]1C[C@H](n2c(C3CCN(S(C)(=O)=O)CC3)nc3cnc4ccc(C#N)cc4c32)CCO1 [Compound 122, 2-(1-methanesulfonylpiperidin-4-yl)-1-[(2R,4R)-2-methyloxan-4-yl]-1H-imidazo[4,5-c]quinoline-8-carbonitrile] | 2.99 | 546
21 | C[C@@H]1C[C@H](n2c(C3CC(=O)N(c4cnn(CCO)c4)C3)nc3cnc4ccc(C#N)cc4c32)CCO1 (stereo partly drawn) [Compound 123, 2-{1-[1-(2-hydroxyethyl)-1H-pyrazol-4-yl]-5-oxopyrrolidin-3-yl}-1-[(2R,4R)-2-methyloxan-4-yl]-1H-imidazo[4,5-c]quinoline-8-carbonitrile] | 1.41 | 4050
22 | C[C@@H]1C[C@H](n2c([C@H]3CN(c4cnn(C)c4)C(=O)O3)nc3cnc4ccc(C#N)cc4c32)CCO1 [Compound 124, 2-[(5R)-3-(1-methyl-1H-pyrazol-4-yl)-2-oxo-1,3-oxazolidin-5-yl]-1-[(2R,4R)-2-methyloxan-4-yl]-1H-imidazo[4,5-c]quinoline-8-carbonitrile] | 0.706 | 50.9
23 | C[C@@H]1C[C@H](n2c(CC(=O)NC3COC3)nc3cnc4ccc(Cl)cc4c32)CCO1 [Compound 141, 2-{8-chloro-1-[(2R,4R)-2-methyloxan-4-yl]-1H-imidazo[4,5-c]quinolin-2-yl}-N-(oxetan-3-yl)acetamide] | 0.53 | 18.7
24 | C[C@@H]1C[C@H](n2c(CC(=O)NCc3ncccn3)nc3cnc4ccc(Cl)cc4c32)CCO1 [Compound 142, 2-{8-chloro-1-[(2R,4R)-2-methyloxan-4-yl]-1H-imidazo[4,5-c]quinolin-2-yl}-N-[(pyrimidin-2-yl)methyl]acetamide] | 0.565 | 17.8
25 | C[C@@H]1C[C@H](n2c(CC(=O)NCC3CCCCO3)nc3cnc4ccc(C#N)cc4c32)CCO1 (stereo partly drawn) [Compound 143, 2-{8-cyano-1-[(2R,4R)-2-methyloxan-4-yl]-1H-imidazo[4,5-c]quinolin-2-yl}-N-[(oxan-2-yl)methyl]acetamide] | 0.534 | 11.5
26 | C[C@@H]1C[C@H](n2c(CC(=O)N[C@@H]3CCOC3)nc3cnc4ccc(Cl)cc4c32)CCO1 [Compound 145, 2-{8-chloro-1-[(2R,4R)-2-methyloxan-4-yl]-1H-imidazo[4,5-c]quinolin-2-yl}-N-[(3R)-oxolan-3-yl]acetamide] | 0.616 | 13.5
27 | C[C@@H]1C[C@H](n2c(CC(=O)NCc3cccc(F)n3)nc3cnc4ccc(C#N)cc4c32)CCO1 [Compound 146, 2-{8-cyano-1-[(2R,4R)-2-methyloxan-4-yl]-1H-imidazo[4,5-c]quinolin-2-yl}-N-[(6-fluoropyridin-2-yl)methyl]acetamide] | 0.313 | 4.79
28 | C[C@@H]1C[C@H](n2c(CC(=O)N[C@H]3CCOC3)nc3cnc4ccc(Cl)cc4c32)CCO1 [Compound 147, 2-{8-chloro-1-[(2R,4R)-2-methyloxan-4-yl]-1H-imidazo[4,5-c]quinolin-2-yl}-N-[(3S)-oxolan-3-yl]acetamide] | 0.386 | 10
